Results on 14 compounds are retold here after ChEMBL document CHEMBL4619770, “Comatulins A-E, Taurine-Conjugated Anthraquinones from the Australian Crinoid Comatula rotalaria” (J Nat Prod, 2020).

Assay [1] relates to Human immunodeficiency virus 1. In words: Antiviral activity against HIV-1 assessed as reduction in viral replication. It counts as functional, organism-based.
Assay [2] relates to Human immunodeficiency virus 1. The experiment in a line: Antiviral activity against HIV-1 NL4.3 infected in CEM-GXR T cells assessed as reduction in viral replication after 72 hrs by flow cytometry. The following applies: Human immunodeficiency virus 1, NL4.3, CEM-GXR. The class given is functional, organism-based.
Assay [3] relates to Human immunodeficiency virus 1. In words: Antiviral activity against HIV-1 assessed as reduction in viral replication at 0.1 uM. The class given is functional. Further details: scale not given: the % may be the effect or the level left.
For assay [4], the system named is Haemonchus contortus. In words: Anti-helmintic activity against third-stage Haemonchus contortus larvae assessed as reduction in larval motility after 72 hrs. The class given is functional, organism-based.
Assay [5] concerns Haemonchus contortus. The experiment in a line: Anti-helmintic activity against third-stage Haemonchus contortus larvae assessed as reduction in development of xL3 stage larvae to L4 stage at 100 uM after 7 days. It counts as functional, organism-based.
Assay [6] has as its system Haemonchus contortus. In words: Anti-helmintic activity against third-stage Haemonchus contortus larvae assessed as reduction in development of xL3 stage larvae to L4 stage after 7 days. The class given is functional, organism-based. The following applies: 168 h.
Assay [7] has as its system Haemonchus contortus. The experiment in a line: Anti-helmintic activity against third-stage Haemonchus contortus larvae assessed as induction of eviscerated phenotype at 100 uM measured on day 7 by light microscopic analysis relative to control. The class given is functional.
Assay [8] deals with Haemonchus contortus. In words: Anti-helmintic activity against third-stage Haemonchus contortus larvae assessed as reduction in development of xL3 stage larvae to L4 stage at low concentration after 7 days. It counts as functional, organism-based.
Assay [9] concerns Haemonchus contortus. In words: Anti-helmintic activity against fourth stage L4 Haemonchus contortus larvae assessed as induction of eviscerated phenotype measured on day 7 by light microscopic method. It counts as functional, organism-based.
The subject of assay [10] is Haemonchus contortus. In words: Anti-helmintic activity against fourth stage L4 Haemonchus contortus larvae assessed as induction of changes in internal structure measured on day 7 by light microscopic method. The class given is functional, organism-based.

The structures appear in SMILES notation. Active and inactive are the calls of the source. The calls are words filed in the database; no cut-off is given here.

For `CCCC(=O)c1c(O)cc(O)c2c1C(=O)c1cc(OC)cc(O)c1C2=O`, the EC50 in assay [1] was greater than 100 µM.

Turning to `CCCC(=O)c1c(O)c(CNCCS(=O)(=O)O)c(O)c2c1C(=O)c1cc(OC)cc(O)c1C2=O`, the concentration for a half-maximal effect (EC50) in assay [1] is greater than 100 µM. For the compound `COc1cc(O)c2c(c1)C(=O)c1c(C(C)=O)c(O)c(CNCCS(=O)(=O)O)c(O)c1C2=O`, the EC50 in [1] was greater than 100 µM. With `CC(=O)c1c(O)cc(O)c2c1C(=O)c1cc(O)cc(O)c1C2=O`, the EC50 in assay [1] was greater than 100 µM. For the compound `CCCc1cc(=O)c2c(O)cc3cc(O)cc(OC)c3c2o1` [COMAPARVIN], the EC50 stood at 5.7 µM in assay [1] and 7.5 µM in assay [2]. `CCCC(=O)c1c(O)cc(O)c2c1C(=O)c1cc(OC)c(OC)c(O)c1C2=O`: the EC50 in assay [1] was greater than 100 µM. For the compound `COc1cc(O)c2c(c1)C(=O)c1c(C(C)=O)c(O)cc(O)c1C2=O`, the EC50 in [1] was greater than 100 µM. Same read-out and setting: the result for `O=C1c2cc(O)cc(O)c2C(=O)c2c(O)cc(O)cc21` reads greater than 100 µM; that for `CCCC(=O)c1c(O)cc(O)c2c1C(=O)c1cc(OC)cc(OC)c1C2=O`, greater than 100 µM. On to `CCCc1cc(=O)c2c(O)c(OC)c3cc(O)cc(OC)c3c2o1`, for which the EC50 in [1] was greater than 100 µM. `CC(C)(C)NC(=O)[C@@H]1CN(Cc2cccnc2)CCN1C[C@@H](O)C[C@@H](Cc1ccccc1)C(=O)N[C@H]1c2ccccc2C[C@H]1O.O` [INDINAVIR]: the Activity in assay [3] amounted to 72%. In the case of `CCCc1cc(=O)c2c(OC)c(OC)c3cc(OC)cc(OC)c3c2o1`, in [1], the concentration giving a half-maximal response (EC50) is greater than 100 µM. The IC50 with Haemonchus contortus [4] worked out at 30 µM; in the assay on Haemonchus contortus [6], 31 µM. For the same compound, the result in the assay on Haemonchus contortus [5] and with Haemonchus contortus [10] was Active. Also, the Activity in the assay on Haemonchus contortus [7] came out at 51%. The result in the assay on Haemonchus contortus [8] and in the assay with Haemonchus contortus [9] was inactive. For `COc1cc(OC)c2c(c1)C(=O)c1c(C(C)=O)c(O)cc(O)c1C2=O`, the EC50 in [1] is greater than 100 µM.

Regarding `CCCC(=O)c1c(O)cc(O)c2c1C(=O)c1cc(O)cc(O)c1C2=O`, the concentration giving a half-maximal response (EC50) in assay [1] was greater than 100 µM. The result in the assay on Haemonchus contortus [5] was Active.
